Assay results published in patent publication US20190185518A9, “WARHEAD-CONTAINING PEPTIDOMIMETIC MACROCYCLES AS MODULATORS OF BFL-1” (AILERON Therapeutics, Inc., priority 2017, published 2019).
Positions of bridges follow the written chain, without caps; N, C: chain ends. Non-standard residues stand in square brackets, D forms with d. Residues, ends and D or L forms follow the SMILES beside them. hCha = N[C@@H](CCC1CCCCC1)C(=O)O; R8 = C=CCCCCCC[C@@](C)(N)C(=O)O; Cit = NC(=O)NCCC[C@H](N)C(=O)O; S5 = C=CCCC[C@](C)(N)C(=O)O

Key:
Bcl-xL = Bcl-xL (Homo sapiens, UniProt Q07817); assay: Ki determination for Bcl-xL (BCL-2 family binding spectrum); conditions: read-out: Ki BCL-XL
Procedure, shortened: (§1)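 Competitive fluorescence polarization: compounds (1 nM–1 mM) with 25 nM fluoresceinated peptidomimetic macrocycle and 50 nM protein in 140 mM NaCl, 50 mM Tris-HCl pH 7.4, 30 min at room temperature. Constants from nonlinear regression.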

Mcl-1 = Mcl-1 (Homo sapiens, UniProt Q07820); assay: Ki determination for Mcl-1 (BCL-2 family binding spectrum); conditions: read-out: Ki MCL-1
Procedure, shortened: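 Binding to Mcl-1 was measured as displacement of a fluorescein-labelled macrocyclic peptidomimetic, read by fluorescence polarization. Constants were fitted by nonlinear regression.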

Bcl-2 = Bcl-2 (Homo sapiens, UniProt P10415); assay: Ki determination for Bcl-2 (BCL-2 family binding spectrum); conditions: read-out: Ki BCL-2
Procedure, shortened: as §1

Mcl-1, sequence (Q07820 whole entry, species assumed): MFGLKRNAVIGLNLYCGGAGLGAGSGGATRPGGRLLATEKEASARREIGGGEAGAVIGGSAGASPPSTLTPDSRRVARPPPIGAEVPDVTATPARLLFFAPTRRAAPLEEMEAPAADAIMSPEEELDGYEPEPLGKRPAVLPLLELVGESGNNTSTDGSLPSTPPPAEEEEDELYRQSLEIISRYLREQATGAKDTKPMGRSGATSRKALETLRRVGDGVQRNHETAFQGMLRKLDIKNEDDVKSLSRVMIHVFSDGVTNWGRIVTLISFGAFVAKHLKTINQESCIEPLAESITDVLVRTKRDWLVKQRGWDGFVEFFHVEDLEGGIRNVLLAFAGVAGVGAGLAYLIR
Bcl-2, sequence (P10415 whole entry, species assumed): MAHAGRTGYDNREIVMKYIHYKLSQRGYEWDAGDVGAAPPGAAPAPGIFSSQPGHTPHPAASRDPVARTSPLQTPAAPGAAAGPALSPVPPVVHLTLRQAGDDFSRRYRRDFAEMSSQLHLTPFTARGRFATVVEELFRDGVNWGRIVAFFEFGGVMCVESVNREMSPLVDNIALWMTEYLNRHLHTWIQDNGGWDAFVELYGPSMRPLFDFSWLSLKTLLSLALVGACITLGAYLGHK
Bcl-xL, sequence (Q07817 whole entry, species assumed): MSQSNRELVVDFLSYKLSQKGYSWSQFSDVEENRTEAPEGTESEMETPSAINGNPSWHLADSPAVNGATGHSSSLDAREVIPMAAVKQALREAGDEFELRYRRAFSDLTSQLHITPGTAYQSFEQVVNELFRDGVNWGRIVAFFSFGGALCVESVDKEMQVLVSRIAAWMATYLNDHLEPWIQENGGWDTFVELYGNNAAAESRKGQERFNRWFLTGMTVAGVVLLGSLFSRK

| Ki (Bcl-xL) [nM] | Ki (Mcl-1) [nM] | Ki (Bcl-2) [nM] | Compound |
| --- | --- | --- | --- |
| 1 | 1 | 6 | CC[C@H](C)[C@H](NC(C)=O)C(=O)N[C@@H](Cc1c[nH]c2ccccc12)C(=O)N[C@H](C(=O)N[C@@H](C)C(=O)N[C@@H](C)C(=O)N[C@@H](C)C(=O)N[C@@H](CC(C)C)C(=O)N[C@@H](CCCNC(=N)N)C(=O)N[C@]1(C)CCCCCCC=CCCC[C@@](C)(C(=O)N[C@@H](Cc2ccc(O)cc2)C(=O)N[C@@H](Cc2ccc(O)cc2)C(=O)N[C@@H](C)C(N)=O)NC(=O)[C@H](CC(N)=O)NC(=O)[C@H](Cc2ccccc2)NC(=O)[C@H](CCC(=O)O)NC(=O)[C@H](CC(=O)O)NC(=O)CNC(=O)[C@H]([C@@H](C)CC)NC1=O)[C@@H](C)CC [compound 1651] (Ac-IWIAAALR[R8]IGDEFN[S5]YYA-NH2; staple 9-16) |
| 4 | 6 | 22 | CC[C@H](C)[C@H](NC(C)=O)C(=O)N[C@@H](Cc1c[nH]c2ccccc12)C(=O)N[C@H](C(=O)N[C@@H](C)C(=O)N[C@@H](C)C(=O)N[C@@H](C)C(=O)N[C@@H](CC(C)C)C(=O)N[C@@H](CCCNC(=N)N)C(=O)N[C@]1(C)CCCCCCC=CCCC[C@@](C)(C(=O)N[C@@H](Cc2ccc(O)cc2)C(=O)N[C@@H](Cc2ccc(O)cc2)C(=O)N[C@@H](C)C(N)=O)NC(=O)[C@H](CC(N)=O)NC(=O)[C@H](Cc2ccccc2)NC(=O)[C@H](CCC(N)=O)NC(=O)[C@H](CC(=O)O)NC(=O)CNC(=O)[C@H]([C@@H](C)CC)NC1=O)[C@@H](C)CC [compound 1652] (Ac-IWIAAALR[R8]IGDQFN[S5]YYA-NH2; staple 9-16) |
| 28.8 | 1.7 | 88.2 | CC[C@H](C)[C@H](NC(C)=O)C(=O)N[C@@H](Cc1c[nH]c2ccccc12)C(=O)N[C@H](C(=O)N[C@@H](C)C(=O)N[C@@H](CCC(N)=O)C(=O)N[C@@H](C)C(=O)N[C@@H](CC(C)C)C(=O)N[C@@H](CCCNC(N)=O)C(=O)N[C@]1(C)CCCCCCC=CCCC[C@@](C)(C(=O)N[C@@H](Cc2ccc(O)cc2)C(=O)N[C@@H](Cc2ccc(O)cc2)C(=O)N[C@@H](C)C(N)=O)NC(=O)[C@H](CC(N)=O)NC(=O)[C@H](Cc2ccccc2)NC(=O)[C@H](CCC(N)=O)NC(=O)[C@H](CC(=O)O)NC(=O)CNC(=O)[C@H]([C@@H](C)CC)NC1=O)[C@@H](C)CC [compound 1656] (Ac-IWIAQAL[Cit][R8]IGDQFN[S5]YYA-NH2; staple 9-16) |
| > 1000 | > 1000 | > 1000 | CC[C@H](C)[C@H](NC(C)=O)C(=O)N[C@@H](Cc1c[nH]c2ccccc12)C(=O)N[C@H](C(=O)N[C@@H](C)C(=O)N[C@@H](CCC(N)=O)C(=O)N[C@@H](C)C(=O)N[C@@H](CC(C)C)C(=O)N[C@@H](Cc1c[nH]cn1)C(=O)N[C@]1(C)CCCCCCC=CCCC[C@@](C)(C(=O)N[C@@H](Cc2ccc(O)cc2)C(=O)N[C@@H](Cc2ccc(O)cc2)C(=O)N[C@@H](C)C(N)=O)NC(=O)[C@H](CC(N)=O)NC(=O)[C@H](Cc2ccccc2)NC(=O)[C@H](C)NC(=O)[C@H](CC(=O)O)NC(=O)CNC(=O)[C@H]([C@@H](C)CC)NC1=O)[C@@H](C)CC [compound 1657] (Ac-IWIAQALH[R8]IGDAFN[S5]YYA-NH2; staple 9-16) |
| > 1000 | > 1000 | > 1000 | CC[C@H](C)[C@H](NC(C)=O)C(=O)N[C@@H](Cc1c[nH]c2ccccc12)C(=O)N[C@H](C(=O)N[C@@H](C)C(=O)N[C@@H](CCC(N)=O)C(=O)N[C@@H](C)C(=O)N[C@@H](CC(C)C)C(=O)N[C@@H](Cc1c[nH]cn1)C(=O)N[C@]1(C)CCCCCCC=CCCC[C@@](C)(C(=O)N[C@@H](Cc2ccc(O)cc2)C(=O)N[C@@H](Cc2ccc(O)cc2)C(=O)N[C@@H](C)C(N)=O)NC(=O)[C@H](CC(N)=O)NC(=O)[C@H](Cc2ccccc2)NC(=O)[C@H](CCC(N)=O)NC(=O)[C@H](CC(=O)O)NC(=O)CNC(=O)[C@H]([C@@H](C)CC)NC1=O)[C@@H](C)CC [compound 1658] (Ac-IWIAQALH[R8]IGDQFN[S5]YYA-NH2; staple 9-16) |
| 402 | 7.5 | 140 | CC[C@H](C)[C@H](NC(C)=O)C(=O)N[C@@H](Cc1c[nH]c2ccccc12)C(=O)N[C@H](C(=O)N[C@@H](C)C(=O)N[C@@H](CCC(N)=O)C(=O)N[C@@H](C)C(=O)N[C@@H](CC(C)C)C(=O)N[C@@H](CCCNC(=N)N)C(=O)N[C@]1(C)CCCCCCC=CCCC[C@@](C)(C(=O)N[C@@H](Cc2ccc(O)cc2)C(=O)N[C@@H](Cc2ccc(O)cc2)C(=O)N[C@@H](C)C(N)=O)NC(=O)[C@H](CC(N)=O)NC(=O)[C@H](C)NC(=O)[C@H](C)NC(=O)[C@H](CC(=O)O)NC(=O)CNC(=O)[C@H]([C@@H](C)CC)NC1=O)[C@@H](C)CC [compound 1661] (Ac-IWIAQALR[R8]IGDAAN[S5]YYA-NH2; staple 9-16) |
| 7.7 | 116 | 25.6 | CC[C@H](C)[C@H](NC(C)=O)C(=O)N[C@@H](Cc1c[nH]c2ccccc12)C(=O)N[C@H](C(=O)N[C@@H](C)C(=O)N[C@@H](CCC(N)=O)C(=O)N[C@@H](C)C(=O)N[C@@H](CC(C)C)C(=O)N[C@@H](CCCNC(=N)N)C(=O)N[C@]1(C)CCCCCCC=CCCC[C@@](C)(C(=O)N[C@@H](Cc2ccc(O)cc2)C(=O)N[C@@H](Cc2ccc(O)cc2)C(=O)N[C@@H](C)C(N)=O)NC(=O)[C@H](CC(N)=O)NC(=O)[C@H](Cc2ccccc2)NC(=O)[C@H](CCC(N)=O)NC(=O)[C@H](CC(=O)O)NC(=O)[C@H](C)NC(=O)[C@H]([C@@H](C)CC)NC1=O)[C@@H](C)CC [compound 1666] (Ac-IWIAQALR[R8]IADQFN[S5]YYA-NH2; staple 9-16) |
| 1.9 | 122 | 4.8 | CC[C@H](C)[C@H](NC(C)=O)C(=O)N[C@@H](Cc1c[nH]c2ccccc12)C(=O)N[C@H](C(=O)N[C@@H](C)C(=O)N[C@@H](CCC(N)=O)C(=O)N[C@@H](C)C(=O)N[C@@H](CC(C)C)C(=O)N[C@@H](CCCNC(=N)N)C(=O)N[C@]1(C)CCCCCCC=CCCC[C@@](C)(C(=O)N[C@@H](Cc2ccc(O)cc2)C(=O)N[C@@H](Cc2ccc(O)cc2)C(=O)N[C@@H](C)C(N)=O)NC(=O)[C@H](CC(N)=O)NC(=O)[C@H](Cc2ccccc2)NC(=O)[C@H](CCC(N)=O)NC(=O)[C@H](CC(=O)O)NC(=O)CNC(=O)[C@H](C)NC1=O)[C@@H](C)CC [compound 1668] (Ac-IWIAQALR[R8]AGDQFN[S5]YYA-NH2; staple 9-16) |
| 416 | 195 | 405 | CC[C@H](C)[C@H](NC(C)=O)C(=O)N[C@@H](Cc1c[nH]c2ccccc12)C(=O)N[C@H](C(=O)N[C@@H](C)C(=O)N[C@@H](CCC(N)=O)C(=O)N[C@@H](C)C(=O)N[C@@H](CC(C)C)C(=O)N[C@@H](CCCNC(=N)N)C(=O)N[C@]1(C)CCCCCCC=CCCC[C@@](C)(C(=O)N[C@@H](Cc2ccc(O)cc2)C(=O)N[C@@H](Cc2ccc(O)cc2)C(=O)N[C@@H](C)C(N)=O)NC(=O)[C@H](CC(N)=O)NC(=O)[C@H](Cc2ccccc2)NC(=O)[C@H](C)NC(=O)[C@H](CC(N)=O)NC(=O)CNC(=O)[C@H]([C@@H](C)CC)NC1=O)[C@@H](C)CC [compound 1674] (Ac-IWIAQALR[R8]IGNAFN[S5]YYA-NH2; staple 9-16) |
| > 1000 | > 1000 | > 1000 | CC[C@H](C)[C@H](NC(C)=O)C(=O)N[C@@H](Cc1c[nH]c2ccccc12)C(=O)N[C@H](C(=O)N[C@@H](C)C(=O)N[C@@H](CCC(N)=O)C(=O)N[C@@H](C)C(=O)N[C@@H](C)C(=O)N[C@@H](CCCNC(=N)N)C(=O)N[C@]1(C)CCCCCCC=CCCC[C@@](C)(C(=O)N[C@@H](Cc2ccc(O)cc2)C(=O)N[C@@H](Cc2ccc(O)cc2)C(=O)N[C@@H](C)C(N)=O)NC(=O)[C@H](CC(N)=O)NC(=O)[C@H](Cc2ccccc2)NC(=O)[C@H](C)NC(=O)[C@H](CC(=O)O)NC(=O)CNC(=O)[C@H]([C@@H](C)CC)NC1=O)[C@@H](C)CC [compound 1675] (Ac-IWIAQAAR[R8]IGDAFN[S5]YYA-NH2; staple 9-16) |
| > 1000 | 3.8 | > 1000 | CC[C@H](C)[C@H](NC(C)=O)C(=O)N[C@@H](Cc1c[nH]c2ccccc12)C(=O)N[C@H](C(=O)N[C@@H](C)C(=O)N[C@@H](CCC(N)=O)C(=O)N[C@@H](C)C(=O)N[C@@H](CCC1CCCCC1)C(=O)N[C@@H](CCCNC(=N)N)C(=O)N[C@]1(C)CCCCCCC=CCCC[C@@](C)(C(=O)N[C@@H](Cc2ccc(O)cc2)C(=O)N[C@@H](Cc2ccc(O)cc2)C(=O)N[C@@H](C)C(N)=O)NC(=O)[C@H](CC(N)=O)NC(=O)[C@H](Cc2ccccc2)NC(=O)[C@H](C)NC(=O)[C@H](CC(=O)O)NC(=O)CNC(=O)[C@H]([C@@H](C)CC)NC1=O)[C@@H](C)CC [compound 1690] (Ac-IWIAQA[hCha]R[R8]IGDAFN[S5]YYA-NH2; staple 9-16) |

| Compound | Ki (Bcl-xL) [nM] | Ki (Mcl-1) [nM] | Ki (Bcl-2) [nM] |
| --- | --- | --- | --- |
| CC[C@H](C)[C@H](NC(C)=O)C(=O)N[C@@H](Cc1c[nH]c2ccccc12)C(=O)N[C@H](C(=O)N[C@@H](C)C(=O)N[C@@H](CCC(N)=O)C(=O)N[C@@H](C)C(=O)N[C@@H](CC(C)C)C(=O)N[C@@H](C)C(=O)N[C@]1(C)CCCCCCC=CCCC[C@@](C)(C(=O)N[C@@H](Cc2ccc(O)cc2)C(=O)N[C@@H](Cc2ccc(O)cc2)C(=O)N[C@@H](C)C(N)=O)NC(=O)[C@H](CC(N)=O)NC(=O)[C@H](Cc2ccccc2)NC(=O)[C@H](C)NC(=O)[C@H](CC(=O)O)NC(=O)CNC(=O)[C@H]([C@@H](C)CC)NC1=O)[C@@H](C)CC [compound 1673] (Ac-IWIAQALA[R8]IGDAFN[S5]YYA-NH2; staple 9-16) | 386 | 73.8 | > 1000 |
